Where a name gives a salt, the structure may show the parent alone. Read-outs that look alike come from different tables or passages of the source.
How the values were obtained:
[1] = tested on: T. b. brucei L427 WT bloodstream form; experiment: Activity against T. brucei bloodstream forms (resazurin-based assay); format: cell-based; settings: Trypanosoma brucei; 10 μM, 72 h; read-out: Single Dose Assay 10μM Mean Inhibitory Activity (%) ± SD
Experimental: Trypanosoma brucei brucei Lister 427 bloodstream forms were grown at 37 °C, 5% CO2 in complete HMI-9 medium supplemented with 10% foetal calf serum (FCS) and 100 UI/mL of penicillin/streptomycin. […] The efficacy of compounds against T. brucei bloodstream forms was evaluated using a modified resazurin-based assay previously described. Mid-log bloodstream forms were added to an equal volume of serial dilutions of compounds in supplemented complete HMI-9 medium at a final cell density of 5 × 10^3/mL. Following incubation for 72 h at 37 °C 5% CO2, 20 μL of a 0.5 mM resazurin solution was added and plates were incubated for a further 4 h under the same conditions. Fluorescence was measured at 540 nm and 620 nm excitation and emission wavelength, respectively, using a Synergy 2 Multi-Mode Reader (Biotek, Winooski, VT, USA).

[2] = tested on: T. cruzi epimastigotes (Y strain); experiment: Antiproliferative assay on T. cruzi epimastigotes; format: cell-based; settings: Trypanosoma cruzi
Experimental: T. cruzi epimastigotes (Y strain) were obtained by axenic cultivation in the LIT medium, supplemented with 10% FBS (Cultilab, São Paulo, Brazil). Cultures were maintained at […] for 4–5 days until they reached the log growth phase. New cultures were made every 4 days from the initial inoculum of 2 × 10^6 parasites/mL. T. cruzi trypomastigotes (Y strain) were maintained in culture by the infection of LLC-MK2 (ATTC-CCL7) epithelial cells. This cell line was cultured in […] tissue culture bottles (TPP) in RPMI 1640 medium (Gibco), (Thermo Fischer Scientific, Carlsbad, CA, USA) supplemented with 10% FBS (Gibco) (Thermo Fischer Scientific, Carlsbad, CA, USA). Cultures were maintained at 37 °C under 5% CO2 atmosphere, and RPMI 1640 medium and SFB were exchanged every 48 h. After confluence, the cultures were treated with 1 mL of a mixture of trypsin and versene (Sigma, São Paulo, Brazil) (0.2 and 0.002%, respectively). After 24 h, a subconfluence culture was infected with the trypomastigotes in the approximate proportion of 10:1 parasites/cell. From five to seven days post infection, the trypomastigote stage was obtained from the culture supernatant. Alternatively (Figure 2), T. cruzi strain Y was maintained as previously described.
The trypomastigotes were obtained from the supernatant of a previously infected cell line (LLC-MK2). Between 5 and 7 days after infection, protozoa were collected from the supernatants of the infected LLC-MK2 cells and were then incubated with fresh RPMI 1640 medium supplemented with 0.5% FBS, with or without the compounds, for 24 h at 37 °C under a 5% CO2 atmosphere. […] The experiment was performed in duplicate for each of the three different experiments. For the antiproliferative assay involving epimastigotes, […] were cultivated in LIT medium supplemented with 10% FBS. After 24 h of epimastigote growth, different concentrations of 50 nM to 50 µM were added to the culture and incubated for 120 h at 28 °C. Cells were collected every 24 h for counting in a Neubauer chamber. Two controls were used and consisted of liver infusion broth-tryptose (LIT) supplemented with 10% FBS and LIT added with 0.01% DMSO. To investigate the effect of the compounds on intracellular amastigotes, peritoneal macrophages from Swiss mouse (CF1) plated in 96 wells plates (Costar®, Sigma, São Paulo, Brazil) were incubated for 2 h with T. cruzi trypomastigotes at a ratio of 10 parasites to 1 cell. The non-internalized parasites were removed by washing with the RPMI 1640 medium, and the host cells were incubated for 24 h at 37 °C to allow full internalization and differentiation of trypomastigotes to amastigotes. Fresh 10% FBS-RPMI 1640 medium with 1 µg/mL Hoescht 3348 and 1 µg/mL of WGA-FITC (control) or the same solution containing the inhibitors was added to the infected cells, which were then incubated for 96 h at 37 °C. Every 24 h samples were taken and analysed in high content equipment (InCell Analyser 2000, GE Healthcare, Chicago, IL, USA) with 20× air objective (NA 0.4) using respectively filters to excitation and emission to DAPI (405/455 nm), FITC (488/505 nm) and Cy3 (514/605 nm). Six images were collected for each well for reliable statistical analysis. […] The infection index (i.e., the percentage of infected host cells multiplied by the average number of intracellular amastigotes per infected host cell) was determined by counting a total of 500 host cells. Inhibitor activity was calculated using the SigmaPlot (version 10) program (Systat Software, Inc., San Jose, CA, USA). The results are expressed as the mean values from three independent experiments. The IC50 was calculated for promastigotes and intracellular amastigotes by fitting the values to a non-linear curve analysis. The regression analyses were performed with SigmaPlot 10 (version 10) program (Systat Software, Inc., San Jose, CA, USA).

Aurora B kinase = molecular target: T1, Aurora B kinase (Homo sapiens, UniProt Q96GD4); experiment: Aurora B kinase assay (ADP-Glo); format: biochemical; settings: compounds 10 μM; miltefosine 10 μM or 1 μM; read-out: % inhibition ± SD at 10 μΜ Aurora B
T1 construct: purchased Promega Corp
Experimental: Aurora B kinase assay: Inhibition of Aurora B kinase was determined using the ADP-Glo Kinase Enzyme System (Promega Corp., Madison, WI, USA). The positive control was SU6656 at a final concentration of 1 μM, with the NC being DMSO at the same concentration (v/v). An enzyme master mix containing 1 × buffer, 50 μM DTT and 17.5 ng/μL ([…]) Aurora B (all reagents provided in the kit) was prepared. A substrate master mix containing 1 × buffer, 36 μM adenosine triphosphate (ATP) and 7.5 ng/μL (15 ng/well) myelin basic protein (MBP) as a substrate (buffer and MBP were provided in the Aurora B Kinase Enzyme System; ultrapure ATP was provided in the ADP-Glo Kinase Assay System) was prepared. Two microliters of the enzyme master mix and 2 μL of the substrate master mix were added to each well of a 384-well low-volume plate. The plate was sealed using Thermowell sealing tape (Corning Inc., Corning, NY, USA) and incubated for 45 min at rt. The enzymatic reaction was stopped by adding 4 μL of ADP-Glo reagent (provided in the ADP-Glo Kinase Assay System) and the plate sealed using Thermowell sealing tape and incubated for 40 min at rt. Following this, 8 μL of detection reagent was added to each well, and the plate was sealed again and incubated for 45 min at rt, with the luminescence measured using the EnVision Multilabel 2103 Reader (PerkinElmer, Waltham, MA. USA). DMSO concentration was tolerated up to 2% v/v final.

[3] = epimastigotes, 24 h, read-out: IC50 24 h
[4] = epimastigotes, 48 h, read-out: IC50 48 h
[5] = epimastigotes, 72 h, read-out: IC50 72 h

T1 sequence (Q96GD4 whole entry): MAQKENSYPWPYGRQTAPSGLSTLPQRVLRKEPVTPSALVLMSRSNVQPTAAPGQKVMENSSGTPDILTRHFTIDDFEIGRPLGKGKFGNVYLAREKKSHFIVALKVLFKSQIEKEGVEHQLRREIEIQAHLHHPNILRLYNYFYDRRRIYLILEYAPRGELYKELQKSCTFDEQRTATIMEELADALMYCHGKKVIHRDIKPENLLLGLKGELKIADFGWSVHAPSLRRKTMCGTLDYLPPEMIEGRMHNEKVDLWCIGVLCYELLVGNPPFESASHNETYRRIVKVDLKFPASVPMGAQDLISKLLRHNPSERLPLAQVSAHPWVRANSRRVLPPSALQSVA

SMILES: C[N+](C)(C)CCOP(=O)([O-])OCCCCCn1cc(CCCCCCCCNC(=O)OCc2ccccc2)nn1 [Compound 31, 5-(4-(8-(((benzyloxy)carbonyl)amino)octyl)-1H-1,2,3-triazol-1-yl)pentyl (2-(trimethylammonio)ethyl) phosphate inner salt]
- inhibition at 10 µM [1]: 20 ± 1%

SMILES: C[N+](C)(C)CCOP(=O)([O-])OCCCCCCCCCCCn1cc(CC2CCCCC2)nn1 [Compound 29, 11-(4-(cyclohexylmethyl)-1H-1,2,3-triazol-1-yl)undecyl (2-(trimethylammonio)ethyl) phosphate inner salt]
- IC50 [2, 3]: > 10 µM
- IC50 [2, 4]: > 10 µM
- IC50 [2, 5]: > 10 µM
- inhibition at 10 µM (Aurora B kinase): -6.17%

SMILES: C[N+](C)(C)CCOP(=O)([O-])OCCCCCCCCCCCn1cc(CCCCCCCCNC(=O)OCc2ccccc2)nn1 [Compound 32, 11-(4-(8-(((benzyloxy)carbonyl)amino)octyl)-1H-1,2,3-triazol-1-yl)undecyl (2-(trimethylammonio)ethyl) phosphate inner salt]
- inhibition at 10 µM [1]: 36 ± 4%

SMILES: CCCCCc1cn(CCCCCCCCCCCOP(=O)([O-])OCC[N+](C)(C)C)nn1 [Compound 25, 11-(4-pentyl-1H-1,2,3-triazol-1-yl)undecyl (2-(trimethylammonio)ethyl) phosphate inner salt]
- IC50 [2, 3]: 7.8 µM
- IC50 [2, 4]: 3.85 µM
- IC50 [2, 5]: 2.16 µM
- inhibition at 10 µM (Aurora B kinase): -10.3%

SMILES: C[N+](C)(C)CCOP(=O)([O-])OCCCCCCCCCCCn1cc(CC2CCCC2)nn1 [Compound 28, 11-(4-(cyclopentylmethyl)-1H-1,2,3-triazol-1-yl)undecyl (2-(trimethylammo nio)ethyl) phosphate inner salt]
- inhibition at 10 µM [1]: < 20%
- inhibition at 10 µM (Aurora B kinase): -11.7%

SMILES: C[N+](C)(C)CCCOP(=O)([O-])OCCCCCCCCCCCn1cc(CC2CCCCC2)nn1 [Compound 33, 11-(4-(cyclohexylmethyl)-1H-1,2,3-triazol-1-yl)undecyl (3-(trimethylammonio)propyl) phosphate inner salt]
- inhibition at 10 µM [1]: 23 ± 3%

SMILES: CCCCCCCCCCCCCCCCOP(=O)([O-])OCC[N+](C)(C)C [Miltefosine, hexadecylphosphocholine, reference compound]
- IC50 ([2]; 24 h, read-out: IC50 24 h): 18.4 ± 1.2 µM
- IC50 ([2]; 48 h, read-out: IC50 48 h): 9.5 ± 0.9 µM
- IC50 ([2]; 72 h, read-out: IC50 72 h): 8.34 µM
- inhibition at 10 µM (Aurora B kinase): -12.5%

Reference: paper PMC8305768, “Design, Synthesis and Antiparasitic Evaluation of Click Phospholipids” (Molecules, 2021)
